Results from patent US6274715A, “Tricyclic erythromycin derivatives” (priority 1997, dated 2001).
Converted amounts (≈) assume the structure as drawn.

Assays:
Assay type in all cases: cell-based
[1] = tested on: STAPHYLOCOCCUS AUREUS 1775; test: In vitro antibacterial activity, MIC, BHI agar dilution; settings: S. aureus 1775, unit assumed
[2] = tested on: ESCHERICHIA COLI KNK 437; settings: E. coli KNK 437; BHI agar; unit assumed
[3] = tested on: STAPHYLOCOCCUS AUREUS ATCC 6538P; test: In vitro antibacterial activity, MIC, BHI agar dilution; settings: S. aureus ATCC 6538P, 35-37° C., 20 to 24 hours, unit assumed
[4] = tested on: ENTEROBACTER AEROGENES ATCC 13048; test: as above; settings: E. aerogenes ATCC 13048, unit assumed
[5] = tested on: CANDIDA ALBICANS CCH 442; test: as above; settings: C. albicans CCH 442, unit assumed
[6] = tested on: KLEBSIELLA PNEUMONIAE ATCC 8045; test: as above; settings: K. pneumoniae ATCC 8045, unit assumed
[7] = tested on: PSEUDOMONAS AERUGINOSA DPHD-2862; test: as above; settings: P. aeruginosa DPHD-2862, unit assumed
[8] = tested on: STAPHYLOCOCCUS AUREUS CMX 642A; test: as above; settings: S. aureus CMX 642A, unit assumed
[9] = tested on: ESCHERICHIA COLI DC-2; test: as above; settings: E. coli DC-2, unit assumed
[10] = tested on: EN[…] ATCC 8043; test: as above; settings: E. faecium ATCC 8043, unit assumed
Outline: (§1)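 MIC was read visually as the lowest drug level with no growth, a slight haze or sparsely isolated colonies relative to a compound-free growth control. Organisms were spotted at 1:100 dilution (1:10 for slow-growing strains) onto Brain Heart Infusion agar containing serial compound dilutions and incubated 20 to 24 hours at 35-37° C.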

[11] = tested on: STR[…] 508; test: as above; settings: S. agalactiae CMX 508, unit assumed
Outline: as §1

[12] = tested on: M[…] ATCC 4698; test: as above; settings: M. luteus ATCC 4698, unit assumed
Outline: as §1

[13] = tested on: M[…] ATCC 9341; test: as above; settings: M. luteus ATCC 9341, unit assumed
Outline: as §1

[14] = tested on: STAPHYLOCOCCUS AUREUS A5177; test: as above; settings: S. aureus A5177, unit assumed
[15] = tested on: STAPHYLOCOCCUS AUREUS NCTC10649M; test: as above; settings: S. aureus NCTC10649M, unit assumed
[16] = tested on: PSEUDOMONAS AERUGINOSA 5007; test: as above; settings: P. aeruginosa 5007, unit assumed
[17] = tested on: PSEUDOMONAS AERUGINOSA K799/61; test: as above; settings: P. aeruginosa K799/61, unit assumed
[18] = tested on: STREPTOCOCCUS PYOGENES 930; test: as above; settings: S. pyogenes 930, unit assumed
[19] = tested on: PROVIDENCIA STUARTII CMX 640; settings: P. stuartii CMX 640; BHI agar; unit assumed
[20] = tested on: ESCHERICHIA COLI SS; test: In vitro antibacterial activity, MIC, BHI agar dilution; settings: E. coli SS, unit assumed
[21] = tested on: PSEUDOMONAS AERUGINOSA BMH10; test: as above; settings: P. aeruginosa BMH10, unit assumed
[22] = tested on: STREPTOCOCCUS BOVIS A-5169; test: as above; settings: S. bovis A-5169, unit assumed
[23] = tested on: MYCOBACTERIUM SMEGMATIS ATCC 114; test: as above; settings: M. smegmatis ATCC 114, unit assumed
[24] = tested on: STAPHYLOCOCCUS AUREUS A-5278; test: as above; settings: S. aureus A-5278, unit assumed
[25] = tested on: STREPTOCOCCUS PYOGENES PIU 2548; test: as above; settings: S. pyogenes PIU 2548, unit assumed
[26] = tested on: STAPHYLOCOCCUS AUREUS CMX 553; test: as above; settings: S. aureus CMX 553, unit assumed
[27] = tested on: PSEUDOMONAS CEPACIA 296I; test: as above; settings: P. cepacia 296I, unit assumed
[28] = tested on: STREPTOCOCCUS PYOGENES EES61; test: as above; settings: S. pyogenes EES61, unit assumed
[29] = tested on: ESCHERICHIA COLI JUHL; settings: E. coli JUHL; BHI agar; unit assumed
[30] = tested on: STAPHYLOCOCCUS EPIDERMIDIS 3519; settings: S. epidermidis 3519; BHI agar; unit assumed
[31] = tested on: PSEUDOMONAS AERUGINOSA K799/WT; test: In vitro antibacterial activity, MIC, BHI agar dilution; settings: P. aeruginosa K799/WT, unit assumed
[32] = tested on: ESCHERICHIA COLI H560; test: as above; settings: E. coli H560, unit assumed
[33] = tested on: PSEUDOMONAS AERUGINOSA DPHD-5263; test: as above; settings: P. aeruginosa DPHD-5263, unit assumed

SMILES	MIC [1]	MIC [2]	MIC [3]	MIC [4]	MIC [5]	MIC [6]	MIC [7]	MIC [8]	MIC [9]	MIC [10]	MIC [11]	MIC [12]	MIC [13]	MIC [14]	MIC [15]	MIC [16]	MIC [17]	MIC [18]	MIC [19]	MIC [20]	further results
CC[C@H]1OC(=O)[C@H](C)C(=O)[C@H](C)[C@@H](O[C@@H]2O[C@H](C)C[C@H](N(C)C)[C@H]2O)[C@](C)(OC)C[C@@H](C)C2=NC[C@H](COC(=O)c3ccncc3)N3C(=O)O[C@@]1(C)[C@H]3[C@H]2C [Example 138]	> 100 µg/mL	50 µg/mL (≈ 64.7 µM)	0.39 µg/mL (≈ 0.505 µM)	> 100 µg/mL	> 100 µg/mL	> 100 µg/mL	> 100 µg/mL	0.39 µg/mL (≈ 0.505 µM)	50 µg/mL (≈ 64.7 µM)	0.1 µg/mL (≈ 0.129 µM)	0.1 µg/mL (≈ 0.129 µM)	0.39 µg/mL (≈ 0.505 µM)	0.02 µg/mL (≈ 0.0259 µM)	0.39 µg/mL (≈ 0.505 µM)	0.39 µg/mL (≈ 0.505 µM)	> 100 µg/mL	0.78 µg/mL (≈ 1.01 µM)	> 100 µg/mL	> 100 µg/mL	0.78 µg/mL (≈ 1.01 µM)	MIC [21]: > 100 µg/mL; MIC [22]: 0.01 µg/mL (≈ 0.0129 µM); MIC [23]: 3.1 µg/mL (≈ 4.01 µM); MIC [24]: > 100 µg/mL; MIC [25]: 1.56 µg/mL (≈ 2.02 µM); MIC [26]: 0.39 µg/mL (≈ 0.505 µM); MIC [27]: 100 µg/mL (≈ 129 µM); MIC [28]: 0.02 µg/mL (≈ 0.0259 µM); MIC [29]: 50 µg/mL (≈ 64.7 µM); MIC [30]: 0.39 µg/mL (≈ 0.505 µM); MIC [31]: > 100 µg/mL; MIC [32]: 50 µg/mL (≈ 64.7 µM); MIC [33]: > 100 µg/mL
CC[C@H]1OC(=O)[C@H](C)C(=O)[C@H](C)[C@@H](O[C@@H]2O[C@H](C)C[C@H](N(C)C)[C@H]2O)[C@](C)(OC)C[C@@H](C)C2=NCC(COC(=O)c3ccc([N+](=O)[O-])cc3)N3C(=O)O[C@@]1(C)[C@H]3[C@H]2C (stereo partly drawn) [Example 140]	> 100 µg/mL	50 µg/mL (≈ 61.2 µM)	0.1 µg/mL (≈ 0.122 µM)	> 100 µg/mL	> 100 µg/mL	> 100 µg/mL	> 100 µg/mL	0.1 µg/mL (≈ 0.122 µM)	50 µg/mL (≈ 61.2 µM)	0.05 µg/mL (≈ 0.0612 µM)	0.02 µg/mL (≈ 0.0245 µM)	0.1 µg/mL (≈ 0.122 µM)	0.01 µg/mL (≈ 0.0122 µM)	0.1 µg/mL (≈ 0.122 µM)	0.1 µg/mL (≈ 0.122 µM)	> 100 µg/mL	0.39 µg/mL (≈ 0.477 µM)	50 µg/mL (≈ 61.2 µM)	> 100 µg/mL	0.78 µg/mL (≈ 0.955 µM)	MIC [21]: > 100 µg/mL; MIC [22]: ≤ 0.005 µg/mL; MIC [23]: 0.39 µg/mL (≈ 0.477 µM); MIC [24]: > 100 µg/mL; MIC [25]: 0.2 µg/mL (≈ 0.245 µM); MIC [26]: 0.1 µg/mL (≈ 0.122 µM); MIC [27]: 25 µg/mL (≈ 30.6 µM); MIC [28]: ≤ 0.005 µg/mL; MIC [29]: 50 µg/mL (≈ 61.2 µM); MIC [30]: 0.1 µg/mL (≈ 0.122 µM); MIC [31]: > 100 µg/mL; MIC [32]: 25 µg/mL (≈ 30.6 µM); MIC [33]: > 100 µg/mL
CC[C@H]1OC(=O)[C@H](C)C(=O)[C@H](C)[C@@H](O[C@@H]2O[C@H](C)C[C@H](N(C)C)[C@H]2O)[C@](C)(OC)C[C@@H](C)C2=NCC(COC(=O)c3ccc(Cl)cc3)N3C(=O)O[C@@]1(C)[C@H]3[C@H]2C (stereo partly drawn) [Example 141]	50 µg/mL (≈ 62 µM)	50 µg/mL (≈ 62 µM)	0.1 µg/mL (≈ 0.124 µM)	> 100 µg/mL	> 100 µg/mL	100 µg/mL (≈ 124 µM)	> 100 µg/mL	0.1 µg/mL (≈ 0.124 µM)	50 µg/mL (≈ 62 µM)	0.02 µg/mL (≈ 0.0248 µM)	0.02 µg/mL (≈ 0.0248 µM)	0.1 µg/mL (≈ 0.124 µM)	0.01 µg/mL (≈ 0.0124 µM)	0.1 µg/mL (≈ 0.124 µM)	0.1 µg/mL (≈ 0.124 µM)	> 100 µg/mL	1.56 µg/mL (≈ 1.93 µM)	50 µg/mL (≈ 62 µM)	> 100 µg/mL	0.78 µg/mL (≈ 0.967 µM)	MIC [21]: 100 µg/mL (≈ 124 µM); MIC [22]: ≤ 0.005 µg/mL; MIC [23]: 0.2 µg/mL (≈ 0.248 µM); MIC [24]: 50 µg/mL (≈ 62 µM); MIC [25]: 0.2 µg/mL (≈ 0.248 µM); MIC [26]: 0.1 µg/mL (≈ 0.124 µM); MIC [27]: 25 µg/mL (≈ 31 µM); MIC [28]: ≤ 0.005 µg/mL; MIC [29]: 50 µg/mL (≈ 62 µM); MIC [30]: 0.1 µg/mL (≈ 0.124 µM); MIC [31]: > 100 µg/mL; MIC [32]: 12.5 µg/mL (≈ 15.5 µM); MIC [33]: > 100 µg/mL
